Data on one compound can be found in patent publication US12319915B2, “Cytotoxic fluoropyrimidine polymers and methods of use thereof” (Wake Forest University Health Sciences, priority 2018, dated 2025).

One may read the half-life as how long it takes for the measured level to halve. A word on the GI50: it is the concentration giving 50% growth inhibition. The low end stands for more potent growth inhibition, the high end for less potent growth inhibition.

The test system of one series is HCT-116 flank tumors. As to the kind of experiment: HCT-116 flank xenograft model. The following applies: 5-FU 70 mg/kg i.p. 2× per week every other week.
For series [1], the system named is HCT-116-luc orthotopic xenografts.
Description: Orthotopic Colorectal Model. Protocol was followed per Tseng et al.'s previous study (Tseng W. et al., Vis Exp, 2007 (10): p. 484). A xenograft tumor was formed as described above using HCT116-luc cells. Once the tumor reached a size large enough for transplantation, mice were euthanized and tumor tissue was removed. The tumor was divided into 2-3 mm pieces and placed in PBS on ice. BALB/c mice were put under anesthesia, and the abdomen was prepped with a betadine solution. A laparotomy was performed in the abdomen and the cecum was exposed. The cecal wall was slightly damaged to allow cell invasion. A piece of tumor tissue was then attached to the outside of the cecum by a figure-8 stitch using a 9-O-nylon suture. The cecum is returned to the cavity and the abdomen wall is closed up using 6-0 coated vycryl sutures. A rectal thermometer monitored the internal temperature of the mice during surgery. Mouse recovery was monitored closely and mice were given Meloxicam every day for 3 days to alleviate pain along with normal saline to keep the mice hydrated. Tumor volume and cell progression was monitored using an IVIS live imaging system for evaluated total proton flux. […] CF10 was dosed 2×/week every week at 360 mg/kg (n=8 study 1; n=2 in study 2). All drugs, or vehicle (0.9% saline; n=8 study 1; n=6 study 2) were administered by i.p. injection in 200 μL volume.
Animal Imaging. Pierce D-Luciferin (Thermo Scientific) was injected subcutaneous using a 28-gauge needle 15 minutes before imaging. Mice were placed in an anesthesia chamber with 1.5% isoflurane and then transferred to the IVIS stage under 2% isoflurane using a nose cone placing the mice on their back. IVIS Lumina LT Series III machine was used for all mouse images. All images were analyzed at the end of the time experiment using the same Living Image software. A region of interest was placed on the mouse′ midsection and determined the total flux in that region. The region of interest remained identical for each mouse. Graphs were plotted as total flux per mouse for each week.
Statistical Analysis. All statistical analyses were conducted using SAS 9.4 using a mixed models approach. Baseline flux from IVIS imaging measurement, group, time and group-by-time interaction were included as fixed effects. The animals were included as random effects to account for the within animal correlation. Survival differences among treatment groups were determined using a log-rank test.
Histology Analysis. Tissues from select mice from all treatment groups were removed from animals after undergoing euthanasia by intra-cardiac administration of KCl solution. In some instances, mice were injected with luciferin ˜20 min prior to euthanasia and tissue extraction to permit IVIS imaging of extracted tissue. Tumors were weighed after removal and in instances where there was suspicion of possible metastases to liver, lung, or other organs tissue from these organs was removed and if luciferin was administered prior to euthanasia, these tissues were imaged using the IVIS system. All tissues were fixed in 10% neutral buffered formalin for 24 h followed by transfer to 70% ethanol. Following routine processing in xylene, tissues were sectioned at 4 μm and stained with Hematoxylin and Eosin and evaluated by light microscopy by a veterinary pathologist.
The conditions of series [2]: cited from earlier work.
Another series has as its system HCT-116. As to the kind of experiment: NCI60 cell line screen, HCT-116. The class given is cell-based. The following applies: Homo sapiens; HCT-116, NCI 60 cell line screen.
For a further series, the system named is SW620. Put plainly: NCI60 cell line screen, SW620. The class given is cell-based. As to conditions: Homo sapiens, SW-620; SW620, NCI 60 cell line screen.
For a further series, the system named is HCC2998. Put plainly: NCI60 cell line screen, HCC2998. The class given is cell-based. As to conditions: Homo sapiens, HCC 2998; HCC2998, NCI 60 cell line screen.
The next series deals with HCT-116 cells. As to the kind of experiment: cells. The following applies: Homo sapiens, HCT-116, 96 h, read-out: potency (cytotoxicity) to HCT-116 cells.
The target in series [3] is T1, thymidylate synthase (TS) (Homo sapiens, UniProt P04818).
T1 construct: Cell lysate aliquots (400 μg of protein) were added to the reaction buffer; endogenous in cells; host or cells: HCT116 human colorectal cancer cells
Put plainly: Thymidylate synthase activity in lysates of treated HCT116 cells. The class given is cell-based. As to conditions: HCT-116 cells, 100 nM. How it is done: Thymidylate Synthase Activity. TS activity assays were performed using well-established procedures. HCT116 cells were plated at a density of 1.0-1.5×10^6 cells in […] plates. Cells were grown overnight in DMEM media with 10% FBS to allow the cells to adhere and begin to grow. Drugs were then added to the medium and the cells were incubated for the indicated time (24 h or 48 h). Cells were then harvested in 25 mM Tris-HCl, pH 7.4 with Complete Protease Inhibitor Cocktail present (as per instructed, Roche), put through two freeze/thaw cycles, and vigorously vortexed. The lysates were centrifuged at 10,000×g for 10 min at 4° C. The supernatants were assayed for protein concentration and TS catalytic activity. TS catalytic assays were performed in a final volume of 200 μL containing freshly prepared 75 μM 5,10 methylene tetrahydrofolate in 0.5 M NaOH (Schircks Laboratories, Switzerland), 10 μM dUMP, 200,000 dpm of 3H-dUMP (Moravek Biochemicals), 100 μM 2-mercaptoethanol, and 25 mM KH2PO4, pH 7.4. Cell lysate aliquots (400 μg of protein) were added to the reaction buffer and lysis buffer was used to adjust the final volume. The reaction mixture was incubated at 37° C. for 30 min, then stopped by addition of 100 μL of ice-cold, 20% TCA. Stopped reactions were maintained 5 min on ice. […] Reactions were then centrifuged, and aliquots of the supernatant were read by scintillation counting.

A further series has as its system HCT-15. Put plainly: NCI60 cell line screen, HCT-15. The class given is cell-based. As to conditions: Homo sapiens; HCT-15, NCI 60 cell line screen.
A further series deals with COLO205. As to the kind of experiment: NCI60 cell line screen, COLO205. The format is cell-based. The following applies: Homo sapiens, COLO 205; COLO205, NCI 60 cell line screen.
The test system of the next series is HT-29. Put plainly: NCI60 cell line screen, HT-29. The format is cell-based. The following applies: Homo sapiens; HT-29, NCI 60 cell line screen.
In another series the test system is KM-12. Put plainly: NCI60 cell line screen, KM-12. The format is cell-based. The following applies: Homo sapiens, KM12; KM-12, NCI 60 cell line screen.

Some results are limits rather than exact numbers.

T1 sequence (P04818 2-313 limits assumed): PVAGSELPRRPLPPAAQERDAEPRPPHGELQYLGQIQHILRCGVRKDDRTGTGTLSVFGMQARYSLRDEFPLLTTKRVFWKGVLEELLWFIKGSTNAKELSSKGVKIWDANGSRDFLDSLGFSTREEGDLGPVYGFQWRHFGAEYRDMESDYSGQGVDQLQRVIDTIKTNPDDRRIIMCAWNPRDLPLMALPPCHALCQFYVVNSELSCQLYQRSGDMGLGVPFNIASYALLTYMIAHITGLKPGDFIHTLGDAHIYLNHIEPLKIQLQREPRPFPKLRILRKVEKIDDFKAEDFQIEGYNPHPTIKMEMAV
Description for HCT-116 cells: Cell Lines and Drugs. HCT-116 human CRC cells were supplied by GRCF Biorepository & Cell Center (Johns Hopkins University). HCT116 cells were infected with UBC-GFPLuc-LV by the Cell and Viral Vector Laboratory at Wake Forest School of Medicine to generate luciferase-expressing HCT116-luc cells. These cells also express GFP. All human CRC cell lines were maintained in Dulbecco's Modified Eagle Medium (DMEM; Lonza, Switzerland) supplemented with 10% fetal bovine serum (FBS; Sigma, St. Louis, Missouri). Cell lines were cultured in conditions of 37° C. and 5% CO2 and were confirmed negative for mycoplasma.
Cell Culture. Cells were seeded in 96-well plates at the appropriate density in 200 μL medium and incubated for 37° C. overnight for cell attachment. […] Compounds were serially-diluted in either water or DMSO (final DMSO percentage<1%) to a stock concentration, and an equal amount of drug was added to the exponentially growing cells for each tested concentration. All drugs were filtered in 0.22 μm filter before use.
Cell Viability. CellTiter-Glo (Promega, Wisconsin) was used to determine cell viability. Assays were performed according to the manufacturer's instructions. Cell viability was normalized and calculated as a relative percentage of the averaged vehicle control.
Protocol for HCT-116 flank tumors: Animal Model. […] All of the animal experiments were performed on six-to-eight-week-old female BALB/c mice.
Xenograft Model. HCT116 cells (3×10^6 cells) were suspended in ice-cold PBS and mixed 1:1 with Matrigel and subcutaneously injected into the flanks of Balb/nude mice. Tumor growth and mice health were monitored daily until the tumor reached a volume of 100-200 mm^3 (about two weeks). Tumor measurements were taken using electronic digital calipers twice a week, along with mouse weight. Tumor volume (V) was calculated as V=π/6 (L×W^2). 5-FU (70 mg/kg 2×/wk every other week) or CF10 (300 mg/kg) were dosed by intraperitoneal (i.p.) injection using a 28-gauge needle. Mice requiring removal from study due to large tumor burden or weight-loss were euthanized in accord with AVMA guidelines.

For `O=c1[nH]cc(F)c(=O)[nH]1` [5-FU, 5-fluorouracil], the “day post-treatment by which all mice required euthanasia” value in the series with HCT-116 flank tumors was at most 16 days. In addition, the weight loss entry in the series on HCT-116 flank tumors (CF10 300 mg/kg i.p. 2×/week) is given as “greater weight loss than mice in the other treatment groups”. In series [1] (5-FU average at week 5, CF10 one mouse at week 8), the primary tumor weight is listed as 1.0 g. The “mice with putative metastatic tissue” value in series [1] (autopsy at week 5) is given as 2/4. Besides, in [1] (mouse, in vivo, ip, 100 mg/kg), the tolerability result was “toxic”. In addition, the effect on survival entry in [1] (orthotopic HCT-116-luc) is “no significant effect on survival”. Moreover, the median survival in series [1] (orthotopic HCT-116-luc, i.p.) was 31 days. The “tumor growth (rate of change in flux, IVIS)” value in [1] (orthotopic HCT-116-luc, i.p.) is “decrease tumor growth relative to control”. In addition, in series [2], the half-life is given as about 15 min. Further, the GI50 in the series with HCT-116 was 4.07 µM; with SW620 it was 28.2 µM; in the series with HCC2998, 1.51 µM; in the series on HCT-15, 5.62 µM; in the series on COLO205, 6.92 µM; in the series with HT-29, 6.76 µM. Also, the 50% growth inhibitory concentration (GI50) in the series on KM-12 came to 8.71 µM. Moreover, the IC50 with HCT-116 cells amounted to 21 µM. Moreover, the results for the TS enzymatic activity result in series [3] (24 h) and in series [3] (48 h) were “reduced TS activity” and about 75 % control values, respectively.
